The numbers were not newly measured in patent publication US10174015B2, “Substituted heterocyclic derivative, preparation method and use thereof” (Xiamen University, priority 2014, dated 2019), which cites them from elsewhere.

One may read the IC50 as the concentration needed to halve the response being measured.

SMILES strings stand for the structures.

For one data set, the system named is NAAA. As to conditions: NAAA inhibitor, literature value; cited from earlier work.
The subject of data set [1] is inflammatory pain induced by carrageenan and neuropathic pain caused by sciatic nerve ligation. As to conditions: cited from earlier work.
Data set [2] relates to leukocyte migration and inflammatory exudation. The settings on record: topical administration; cited from earlier work.

As to `C[C@@H]1OC(=O)[C@@H]1NC(=O)OCCCCCc1ccccc1` [ARN077], the IC50 in the data set on NAAA was 127 nM. In addition, the “analgesic effects on allodynia compared with gabapentin” value in data set [1] (sciatic nerve ligation, ARN077 1%, 20 μL, epidermal, gabapentin 50 mg/kg oral) is on record as “better analgesic effects on allodynia than the positive control agent gabapentin”. For the same molecule, in data set [1] (topical administration), the “effect on inflammatory and neuropathic pain” value is “significantly inhibit inflammatory pain induced by carrageenan and neuropathic pain caused by sciatic nerve ligation”.

On to `O=C(CCc1ccccc1)N[C@H]1COC1=O` [S-OOPP], for which, in the data set on NAAA, the IC50 is 420 nM. The “effect on leukocyte migration and inflammatory exudation” value in data set [2] is “inhibiting leukocyte migration and inflammatory exudation”.
